From PubChem BioAssay AID1996
≈ marks a conversion by molar mass, not a printed value.

details: buffer; pH 7.4; 200.0 µM

Compared with Cc1nc(NC(=O)COC(=O)CNC(=O)c2ccco2)c(Cl)cc1Cl, Cc1c(C(=O)NCc2ccco2)oc2c(Cl)cccc12 is lower in solubility kinetic: over 57.9 µg/mL for the first, 2.4 µg/mL (≈ 8.28 µM) for the second.

Compared with Cc1ccc(N=C(NO)c2cnccc2C(F)(F)F)c(C)c1, COc1ccc(Oc2ccc(C(F)(F)F)cc2N)cc1 is lower in solubility kinetic: over 46.4 µg/mL for the first, 5.3 µg/mL (≈ 18.7 µM) for the second.

CN(C)C(=O)Oc1ccc(Br)c2ccccc12 and COC(=O)c1ccccc1NC(=S)N(C)C are within 1.5-fold of each other in solubility kinetic: 35 µg/mL (≈ 119 µM) for the first, 34.2 µg/mL (≈ 144 µM) for the second.

First: CCOc1ccc(NC(=O)c2nsc(Cl)c2Cl)cc1
Second: CCCc1cc(C(=O)Nc2ccc(C#N)cc2)no1
The solubility kinetic of the first is 1.8-fold lower: 1.3 µg/mL (≈ 4.1 µM) for the first, 2.4 µg/mL (≈ 9.4 µM) for the second.

Going from Nc1ccc(C(=O)O)c(O)c1 to Cn1cc(Cl)cc(C(=O)Nc2ccccc2)c1=O, the solubility kinetic falls from over 23 µg/mL to 2 µg/mL (≈ 7.61 µM).

CCC(=O)Nc1ccc(-c2ccc(NC(=O)CC)c(OC)c2)cc1OC and COc1ccc(CCNC(=O)COC(=O)c2ccc(S(=O)(=O)N3CCCC3)cc2)cc1OC are within 1.5-fold of each other in solubility kinetic: 7.1 µg/mL (≈ 19.9 µM) for the first, 7.2 µg/mL (≈ 15.1 µM) for the second.

Compared with Cc1cccc(CC(=O)NCC2CCCCC2)c1, Cn1cc(SCC(=O)NC2CCCCC2)c2ccccc21 is lower in solubility kinetic: over 36.8 µg/mL for the first, 9.5 µg/mL (≈ 31.4 µM) for the second.

Compared with Cc1ccc2nc(-c3ccc(N)cc3)sc2c1, NS(=O)(=O)c1ccc(C(=O)Nc2ccc(-c3nc4cccnc4s3)cc2)cc1 is 2.3-fold higher in solubility kinetic: 1.1 µg/mL (≈ 4.58 µM) for the first, 2.5 µg/mL (≈ 6.09 µM) for the second.

Compared with CC1CCN(Cc2nc(Cl)c3c4c(sc3n2)CCC4)CC1, COc1ccc(-c2nc(C#N)c(N3CCC(C)CC3)o2)cc1 is 91-fold lower in solubility kinetic: 27.4 µg/mL (≈ 85.1 µM) for the first, 0.3 µg/mL (≈ 1.01 µM) for the second.

CC(=O)c1ccc(NC(=S)NC2CCCC(C)C2C)cc1 (stereo unspecified) and CC(C)(C)NS(=O)(=O)c1ccc(NC(=O)C2CCCCC2)cc1 are within 1.5-fold of each other in solubility kinetic: 9.7 µg/mL (≈ 31.9 µM) for the first, 11.5 µg/mL (≈ 34 µM) for the second.

CC(Sc1nc(N)cc(=O)[nH]1)C(=O)Nc1nc2c(s1)CCCC2 (stereo unspecified) and COc1ccc(-c2noc(CSc3nc(N)cc(=O)[nH]3)n2)cc1 are within 1.5-fold of each other in solubility kinetic: 8.7 µg/mL (≈ 24.8 µM) for the first, 7.7 µg/mL (≈ 23.2 µM) for the second.

Going from Cc1cccc(NC(=O)c2cc(Cl)nc3ccccc23)n1 to Cc1ccc2nc(-c3ccccc3)c(CC(=O)O)c(C(=O)O)c2c1, the solubility kinetic rises from 19.9 µg/mL (≈ 66.8 µM) to over 48.2 µg/mL.

Cc1ccc(N2C(=O)C3C=NNC3C2=O)cc1 (stereo unspecified) and CCc1ccc(N2C(=O)C3C(C2=O)N2CCCN2C3c2ccccc2)cc1 (stereo unspecified) cannot be ordered by solubility kinetic: over 34.4 µg/mL for the first, over 54.2 µg/mL for the second.

Going from O=C(/C=C/c1ccccc1Cl)OCC(=O)N1CCCC1 to CC1CC(C)CN(C(=O)COC(=O)Cc2ccc(Cl)cc2)C1 (stereo unspecified), the solubility kinetic falls from over 44.1 µg/mL to 41.3 µg/mL (≈ 128 µM).

CCN(Cc1nc(-c2ccc(Cl)cc2)no1)CC1CCCO1 (stereo unspecified) and Cc1ccc(C2(c3noc(CN(C)CC4CCCCO4)n3)CCCC2)cc1 (stereo unspecified) are within 1.5-fold of each other in solubility kinetic: 25.8 µg/mL (≈ 80.2 µM) for the first, 21.2 µg/mL (≈ 57.4 µM) for the second.

Compared with O=C(/C=C/c1ccccc1)OCCN1C(=O)c2ccccc2C1=O, CCN(CC(=O)NCc1ccc(Cl)cc1)C(=O)/C=C/c1ccccc1 is higher in solubility kinetic: under 0.7 µg/mL for the first, 2.8 µg/mL (≈ 7.85 µM) for the second.

Going from CCc1c(O)nc(SCC(=O)c2ccccc2)n(-c2ccccc2)c1=O to CCNC(=O)COC(=O)c1cc(-c2ccccc2)nn1-c1ccccc1, the solubility kinetic rises from 44.6 µg/mL (≈ 122 µM) to over 52.4 µg/mL.

Compared with Cc1ccc(NC(=O)CN2C(=O)S/C(=C\c3ccccn3)C2=O)cc1, COc1ccc(/C=C2\SC(=O)N(CCCC(=O)Nc3cc(Cl)ccc3C(=O)O)C2=O)cc1 is higher in solubility kinetic: 0.9 µg/mL (≈ 2.55 µM) for the first, over 71.2 µg/mL for the second.

O=C(CSc1nncs1)Nc1nccs1 and Cc1cc(NC(=O)CSc2ccc(F)cc2)no1 cannot be ordered by solubility kinetic: over 38.7 µg/mL for the first, over 39.9 µg/mL for the second.

Going from Fc1ccc(-c2csc(-c3ccc(C4SCCS4)cc3)n2)cc1F to c1ccn2cc(-c3ccc4c(c3)OCCO4)nc2c1, the solubility kinetic rises from under 0.8 µg/mL to over 37.8 µg/mL.

Going from COC(=O)c1ccc(Nc2nc(-c3ccncc3)nc3ccccc23)cc1 to Cn1c(COc2ccc(C(=O)O)cc2)nc2ccccc21, the solubility kinetic rises from 1.1 µg/mL (≈ 3.09 µM) to over 42.3 µg/mL.

Compared with O=C(NCCCN1CCOCC1)c1cn(-c2ccccc2)nc1-c1ccc(F)cc1, Cl.c1ccc(-c2ccc(OCCN3CCOCC3)cc2)cc1 is lower in solubility kinetic: over 61.3 µg/mL for the first, 29.8 µg/mL for the second.

First: Cc1c(O)nc2sc3ccccc3n2c1=O
Second: N#CC1=C(N)Oc2c(c(=O)sc3ccccc23)C1c1ccncc1 (stereo unspecified)
The solubility kinetic of the first is 8.7-fold higher: 31.3 µg/mL (≈ 135 µM) for the first, 3.6 µg/mL (≈ 10.8 µM) for the second.

Going from COc1cc2c(cc1OC)CN(Cc1ccc(F)cc1)CC2 to CCc1ccc(CN2CCSCC2)cc1, the solubility kinetic falls from 35.7 µg/mL (≈ 118 µM) to 8.5 µg/mL (≈ 38.4 µM) (4.2-fold).

O=C(Nc1c(-c2ccccc2)nc2ccccn12)c1ccccc1F and O=C1Nc2ccc(Br)cc2C(c2ccccc2)=NC1O (stereo unspecified) cannot be ordered by solubility kinetic: over 49.7 µg/mL for the first, over 49.7 µg/mL for the second.

Compared with Cc1cc(C)c(OCC(=O)Nc2nc3ccccc3[nH]2)c(C)c1, Cc1cccc(-c2nc(C)cc(=O)[nH]2)c1 is higher in solubility kinetic: 0.3 µg/mL (≈ 0.97 µM) for the first, over 30 µg/mL for the second.

Going from O=S(=O)(NC1CCCCC1N1CCC(O)CC1)c1ccccc1 (stereo unspecified) to O=C(CN1C(=O)c2ccccc2C1=O)NC1CCCCCC1, the solubility kinetic falls from over 50.8 µg/mL to 12.4 µg/mL (≈ 41.3 µM).

Going from Cc1cccc(N2CC(C)Cn3c2nc2c3c(=O)[nH]c(=O)n2C)c1 (stereo unspecified) to Cn1c(O)c(/C=N/NC(=O)c2ccncc2)c(=O)[nH]c1=S, the solubility kinetic rises from 27 µg/mL (≈ 83 µM) to over 45.8 µg/mL.

First: O=C(C1CCCCC1)N1CCC(O)(c2ccc(Cl)cc2)CC1
Second: Clc1ccc(OCC#CCN2CCCC2)cc1.O=C(O)C(=O)O
The solubility kinetic of the first is higher: over 48.3 µg/mL for the first, 45.1 µg/mL for the second.

Going from COc1cccc(NC(=S)N2CCC(c3ccc(C)cc3)C2)c1 (stereo unspecified) to COc1ccc(CNC(=O)C(C)OC(=O)c2cccc(N(C)C)c2)cc1 (stereo unspecified), the solubility kinetic rises from 6.9 µg/mL (≈ 21.1 µM) to 37.8 µg/mL (≈ 106 µM) (5.5-fold).

First: CCCCC(CC)COCCCN=Cc1c(O)[nH]c(=S)[nH]c1=O (stereo unspecified)
Second: CCOc1ccc(CN(C)C(=O)Cc2c[nH]c3ccccc23)cc1
The solubility kinetic of the first is 10-fold lower: 4.1 µg/mL (≈ 12 µM) for the first, 42 µg/mL (≈ 130 µM) for the second.

Going from COc1cc(N2C(=O)CC3(CCCC3)CC2=O)cc(OC)c1OC to O=C(Nc1cc2c3c(c1)CC(=O)N3CCC2)c1cccc(F)c1, the solubility kinetic falls from 47.2 µg/mL (≈ 142 µM) to 10.5 µg/mL (≈ 33.8 µM) (4.5-fold).

Compared with NC(=O)COC(=O)CC(c1ccccc1)c1ccccc1, CC(C)N(Cc1ccccc1)C(=O)c1ccc2nsnc2c1 is lower in solubility kinetic: over 42.5 µg/mL for the first, 38.2 µg/mL (≈ 123 µM) for the second.

Compared with Cc1cc(Cl)ccc1NC(=O)C1CCN(S(C)(=O)=O)CC1, Cc1ccc(NC(=O)C2CC3CCC2C3)c(Br)c1 (stereo unspecified) is 5.7-fold lower in solubility kinetic: 10.8 µg/mL (≈ 32.6 µM) for the first, 1.9 µg/mL (≈ 6.16 µM) for the second.

First: Cc1csc(NC(=O)[C@@H]2CCCN2C(=O)c2cccs2)n1
Second: CC(=O)NCCc1nc2cc(NC(=O)c3cccs3)ccc2n1C
The solubility kinetic of the first is lower: 44.2 µg/mL (≈ 138 µM) for the first, over 51.4 µg/mL for the second.

Compared with Cc1ccc(CNC(=O)c2ccc(C)s2)cc1, Cc1cc(C)c2c(CC(=O)NC(C)C)coc2c1 is 2-fold lower in solubility kinetic: 19.2 µg/mL (≈ 78.3 µM) for the first, 9.5 µg/mL (≈ 38.7 µM) for the second.

Compared with COCC1CCN(C(=O)c2oc3c(F)cccc3c2C)C1 (stereo unspecified), CC1(C)CC(=O)C(CC(=O)N2CCC(Cc3ccccc3)CC2)C(=O)C1 is higher in solubility kinetic: 37.3 µg/mL (≈ 128 µM) for the first, over 53.3 µg/mL for the second.

Going from Cc1ccccc1CSc1ccc(S(=O)(=O)N2CCCC2)cn1 to O=C(Nc1ccc(N2CCCC2)cc1)c1cc2ccccc2o1, the solubility kinetic falls from 3.1 µg/mL (≈ 8.9 µM) to 0.4 µg/mL (≈ 1.31 µM) (7.8-fold).

Going from Oc1c(CN2CCOCC2)ccc2ccccc12 to O=C(NCC1CCCO1)c1cc2ccccc2o1 (stereo unspecified), the solubility kinetic rises from 16.9 µg/mL (≈ 69.5 µM) to over 36.8 µg/mL.

N#Cc1ccccc1S(=O)(=O)Nc1ccc2c(c1)C(=O)OC2 and O=c1c2ccccc2nc(Cc2cccc([N+](=O)[O-])c2)n1-c1ccc(O)cc1 are within 1.5-fold of each other in solubility kinetic: 43.4 µg/mL (≈ 138 µM) for the first, 47.8 µg/mL (≈ 128 µM) for the second.

First: CC(Sc1nncn1C)C(=O)Nc1ccc(S(N)(=O)=O)cc1 (stereo unspecified)
Second: Cc1cc(C(=O)O/N=C(\N)c2ccncc2)ccc1[N+](=O)[O-]
The solubility kinetic of the first is higher: over 51.2 µg/mL for the first, 25.1 µg/mL (≈ 83.6 µM) for the second.

First: Cc1cc(-c2ccccc2)n2ncnc2n1
Second: COc1ccccc1Nc1ncccc1[N+](=O)[O-]
The solubility kinetic of the first is higher: over 31.5 µg/mL for the first, 1.2 µg/mL (≈ 4.89 µM) for the second.

First: Cc1cc(NC(=O)c2cccc(Br)c2)no1
Second: C=CCN1C(=O)/C(=C/c2ccsc2)SC1=S
The solubility kinetic of the first is higher: 4.2 µg/mL (≈ 14.9 µM) for the first, under 0.6 µg/mL for the second.
